According to ChEMBL document CHEMBL1201862, “PubChem BioAssay data set” (2004):
Calls of active or inactive are those of the source.

Columns and labels:
[1] = molecular target: UDP-galactopyranose mutase (Mycobacterium tuberculosis, UniProt P9WIQ1); test: Inhibitors of Mycobacterium tuberculosis UDP-galactopyranose mutase (UGM) enzyme Measured in Biochemical System Using Plate Reader - 2105-02_Inhibitor_Dose_CherryPick_Activity. [Related pubchem assays (depositor defined):AID504439]
[2] = HEp-2 cell cytotoxicity, dose response, cytotoxicity control for RSV inhibitor project, HTS (AID 2410); format: functional; settings: human respiratory syncytial virus
[3] = Luminescence Cell-Based Dose Confirmation HTS to Identify Activators of 5'UTR Stem-Loop Driven Alpha-Synuclein mRNA Translation in H4 Neuroglioblastoma Cells. [Related pubchem assays: 1829 (Project Summary), 1814 (Primary HTS)]; format: functional
[4] = Luminescence Cell-Based Dose Response HTS to Identify Activators of Luciferase Translation or Activity in H4 […] Cells. [Related pubchem assays: 1829 (Project Summary), 1814 (Primary HTS)]; format: functional
H4 = test: Luminescence Cell-Based Dose Response HTS to Identify Activators of 5'UTR Stem-Loop Driven Prion Protein mRNA Translation in H4 Neuroglioblastoma Cells. [Related pubchem assays: 1829 (Project Summary), 1814 (Primary HTS)]; format: functional; settings: Homo sapiens
[5] = microbe, parasite or virus in culture; format: functional; settings: Mycobacterium tuberculosis
Exodeoxyribonuclease V = molecular target: T1, Exodeoxyribonuclease V (Escherichia coli (strain K12), UniProt P04993+P07648+P08394); test: E. coli RecBCD inhibitors, dose response, counter-screen for AddAB inhibitor project, absorbance, V66 E. coli, mutant T4 phage (AID 492957); format: functional, cell-based, Escherichia coli str. K-12 substr. MG1655
T1 sequence (P04993 whole entry): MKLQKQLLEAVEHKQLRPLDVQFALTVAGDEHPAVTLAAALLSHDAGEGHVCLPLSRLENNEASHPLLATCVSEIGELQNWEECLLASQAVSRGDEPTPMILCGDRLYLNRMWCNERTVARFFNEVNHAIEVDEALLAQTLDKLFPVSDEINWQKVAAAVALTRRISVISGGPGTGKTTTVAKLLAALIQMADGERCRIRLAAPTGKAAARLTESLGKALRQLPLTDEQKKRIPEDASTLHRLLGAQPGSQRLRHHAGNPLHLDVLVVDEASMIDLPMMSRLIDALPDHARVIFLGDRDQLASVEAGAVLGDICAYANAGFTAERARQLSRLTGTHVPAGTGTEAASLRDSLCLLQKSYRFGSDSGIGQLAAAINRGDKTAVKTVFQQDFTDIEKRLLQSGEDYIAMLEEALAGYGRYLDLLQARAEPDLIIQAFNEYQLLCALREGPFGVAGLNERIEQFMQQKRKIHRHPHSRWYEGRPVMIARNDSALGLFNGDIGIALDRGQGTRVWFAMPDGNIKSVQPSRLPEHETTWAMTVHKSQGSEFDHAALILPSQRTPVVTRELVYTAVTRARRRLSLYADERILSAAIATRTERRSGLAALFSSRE
T1 sequence (P07648 whole entry): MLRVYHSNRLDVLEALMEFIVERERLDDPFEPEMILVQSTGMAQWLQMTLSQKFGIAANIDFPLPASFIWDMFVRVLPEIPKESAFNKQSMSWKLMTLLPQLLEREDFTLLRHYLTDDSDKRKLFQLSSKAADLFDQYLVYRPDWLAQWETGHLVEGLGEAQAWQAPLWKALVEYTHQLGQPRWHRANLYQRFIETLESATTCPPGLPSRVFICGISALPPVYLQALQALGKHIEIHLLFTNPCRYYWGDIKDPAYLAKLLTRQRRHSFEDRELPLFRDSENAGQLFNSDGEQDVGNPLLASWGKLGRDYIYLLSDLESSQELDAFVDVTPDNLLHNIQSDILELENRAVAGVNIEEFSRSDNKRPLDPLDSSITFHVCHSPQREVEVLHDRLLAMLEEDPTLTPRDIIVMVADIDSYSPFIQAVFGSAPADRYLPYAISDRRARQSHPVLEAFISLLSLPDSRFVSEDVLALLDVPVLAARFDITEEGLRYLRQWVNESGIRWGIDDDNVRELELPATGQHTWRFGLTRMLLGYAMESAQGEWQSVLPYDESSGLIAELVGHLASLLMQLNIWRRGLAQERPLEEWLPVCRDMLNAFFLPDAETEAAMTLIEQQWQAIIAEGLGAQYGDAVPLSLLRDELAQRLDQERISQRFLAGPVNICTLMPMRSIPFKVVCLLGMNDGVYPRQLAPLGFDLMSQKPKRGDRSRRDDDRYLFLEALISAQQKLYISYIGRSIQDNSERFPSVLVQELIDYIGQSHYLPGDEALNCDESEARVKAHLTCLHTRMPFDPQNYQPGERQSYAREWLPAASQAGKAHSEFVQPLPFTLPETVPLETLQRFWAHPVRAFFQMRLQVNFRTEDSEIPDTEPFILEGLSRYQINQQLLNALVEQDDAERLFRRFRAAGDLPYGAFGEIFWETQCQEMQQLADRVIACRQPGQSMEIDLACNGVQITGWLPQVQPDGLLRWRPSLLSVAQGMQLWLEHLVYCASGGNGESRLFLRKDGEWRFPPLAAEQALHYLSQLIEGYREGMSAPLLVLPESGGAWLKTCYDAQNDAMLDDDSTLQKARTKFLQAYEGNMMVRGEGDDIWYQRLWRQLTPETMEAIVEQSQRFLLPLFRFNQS
T1 sequence (P08394 whole entry): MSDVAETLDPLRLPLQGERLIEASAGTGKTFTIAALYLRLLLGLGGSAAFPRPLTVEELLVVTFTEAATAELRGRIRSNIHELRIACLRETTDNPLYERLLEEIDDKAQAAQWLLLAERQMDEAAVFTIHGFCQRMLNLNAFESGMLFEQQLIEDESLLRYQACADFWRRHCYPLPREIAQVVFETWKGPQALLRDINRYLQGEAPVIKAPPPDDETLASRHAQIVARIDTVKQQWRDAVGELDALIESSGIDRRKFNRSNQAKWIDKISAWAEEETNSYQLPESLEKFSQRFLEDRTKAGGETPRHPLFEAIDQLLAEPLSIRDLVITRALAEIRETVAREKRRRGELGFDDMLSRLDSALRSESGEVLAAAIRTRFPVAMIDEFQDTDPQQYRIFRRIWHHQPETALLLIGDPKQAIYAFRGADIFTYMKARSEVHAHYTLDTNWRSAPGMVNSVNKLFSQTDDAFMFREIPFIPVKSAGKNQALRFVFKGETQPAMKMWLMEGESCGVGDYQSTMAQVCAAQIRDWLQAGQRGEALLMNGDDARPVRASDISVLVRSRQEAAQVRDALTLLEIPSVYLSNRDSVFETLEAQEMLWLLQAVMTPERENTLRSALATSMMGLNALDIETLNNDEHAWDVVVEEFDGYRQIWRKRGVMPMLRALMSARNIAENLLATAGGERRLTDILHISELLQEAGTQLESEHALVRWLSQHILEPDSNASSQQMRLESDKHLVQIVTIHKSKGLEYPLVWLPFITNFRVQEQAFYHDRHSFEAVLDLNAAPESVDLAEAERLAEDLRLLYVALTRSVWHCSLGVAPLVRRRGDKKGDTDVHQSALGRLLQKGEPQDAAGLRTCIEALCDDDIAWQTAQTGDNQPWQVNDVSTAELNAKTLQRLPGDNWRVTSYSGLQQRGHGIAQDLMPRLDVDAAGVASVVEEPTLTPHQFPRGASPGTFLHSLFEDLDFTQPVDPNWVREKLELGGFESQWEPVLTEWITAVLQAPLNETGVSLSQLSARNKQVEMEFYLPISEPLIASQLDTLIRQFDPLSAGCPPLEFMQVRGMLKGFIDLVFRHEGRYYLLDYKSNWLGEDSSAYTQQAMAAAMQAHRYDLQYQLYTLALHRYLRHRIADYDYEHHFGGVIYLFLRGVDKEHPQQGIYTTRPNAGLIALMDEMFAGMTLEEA

[6] = Counterscreen for AddAB inhibitors: absorbance-based bacterial cell-based high throughput dose response assay for inhibitors of bacterial viability. [Related pubchem assays (depositor defined):AID435030, AID449728, AID449731, AID488942, AID488955, AID488956]; format: functional
HEK293 = test: cells; format: functional, cell-based; settings: Homo sapiens
[7] = molecular target: T2, Nuclear receptor subfamily 0 group B member 1 (Homo sapiens, UniProt P51843); test: Luminescence-based cell-based high throughput dose response assay for inhibitors of the orphan nuclear receptor subfamily 0, group B, member 1 (DAX1; NR0B1). [Related pubchem assays (depositor defined):AID504766, AID504790]; format: functional
T2 sequence (P51843 whole entry): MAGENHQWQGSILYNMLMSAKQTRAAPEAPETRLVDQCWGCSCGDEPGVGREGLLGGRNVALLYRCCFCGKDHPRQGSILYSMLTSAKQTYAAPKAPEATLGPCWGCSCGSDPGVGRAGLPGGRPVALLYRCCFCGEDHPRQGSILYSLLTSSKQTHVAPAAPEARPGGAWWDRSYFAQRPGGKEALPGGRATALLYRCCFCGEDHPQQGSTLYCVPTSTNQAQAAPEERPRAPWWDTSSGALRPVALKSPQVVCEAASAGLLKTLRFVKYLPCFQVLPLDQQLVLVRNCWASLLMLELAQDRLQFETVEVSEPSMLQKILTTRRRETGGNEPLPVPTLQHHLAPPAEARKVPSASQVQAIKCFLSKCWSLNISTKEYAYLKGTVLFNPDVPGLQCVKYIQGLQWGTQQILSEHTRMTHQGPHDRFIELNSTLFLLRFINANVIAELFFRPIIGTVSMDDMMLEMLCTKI

Cytochrome P450 2C19 = Cytochrome P450 2C19 (Homo sapiens, UniProt P33261); test: Cytochrome panel assay with activity outcomes. Panel member name: p450-cyp2c19 Compounds with AC50 equal or less than 10 uM are considered active; format: functional; settings: read-out: AC50
Cytochrome P450 2C19, sequence (P33261 whole entry, the tested form may be a part): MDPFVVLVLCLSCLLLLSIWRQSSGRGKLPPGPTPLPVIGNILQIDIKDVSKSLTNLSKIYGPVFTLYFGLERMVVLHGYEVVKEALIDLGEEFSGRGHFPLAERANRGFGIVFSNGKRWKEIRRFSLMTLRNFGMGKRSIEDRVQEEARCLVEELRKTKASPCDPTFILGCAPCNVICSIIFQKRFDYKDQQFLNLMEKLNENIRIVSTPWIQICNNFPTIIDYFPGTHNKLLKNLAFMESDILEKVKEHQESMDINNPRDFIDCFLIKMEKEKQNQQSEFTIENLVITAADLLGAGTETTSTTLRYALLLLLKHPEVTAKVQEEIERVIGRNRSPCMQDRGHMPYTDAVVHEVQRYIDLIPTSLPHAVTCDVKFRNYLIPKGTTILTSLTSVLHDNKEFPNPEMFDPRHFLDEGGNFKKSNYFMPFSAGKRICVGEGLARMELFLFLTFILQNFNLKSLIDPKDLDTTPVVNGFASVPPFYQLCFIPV

CHO = test: cytotoxicity in TLR9-MyD88 CHO cells, dose response, cytotoxicity control for TLR9-MyD88 binding inhibitor project, cell-based, luminescence (AID 588339); format: functional, hamster; settings: Cricetulus griseus;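 further: CHO cells stably coexpressing TLR9 and MyD88 fusions from primary screen; compound exposure lasted 48 hours before viability readout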
Beta Lactamase = Beta Lactamase (Pseudomonas aeruginosa, UniProt Q932Y6); test: beta-lactamase reporter inhibitor potency, dose response, artefact control for TLR9-MyD88 binding inhibitor project, BLA reporter cells, FRET fluorescence (AID 588341); format: cell-based;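 further: cell based assay in CHO-K1 cells stably expressing beta-lactamase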
Beta Lactamase, sequence (Q932Y6 whole entry): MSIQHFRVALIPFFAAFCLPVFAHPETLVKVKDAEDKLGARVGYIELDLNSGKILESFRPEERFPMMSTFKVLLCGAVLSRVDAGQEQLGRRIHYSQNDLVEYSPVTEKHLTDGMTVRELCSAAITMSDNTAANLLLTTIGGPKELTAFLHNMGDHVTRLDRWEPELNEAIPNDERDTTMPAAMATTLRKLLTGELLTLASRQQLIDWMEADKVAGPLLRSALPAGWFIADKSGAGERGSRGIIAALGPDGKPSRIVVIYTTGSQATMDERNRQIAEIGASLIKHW

Cytochrome P450 3A4 = Cytochrome P450 3A4 (Homo sapiens, UniProt P08684);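 further: CYP3A4 tested as one member of a cytochrome P450 panel screen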
Cytochrome P450 3A4, sequence (P08684 whole entry): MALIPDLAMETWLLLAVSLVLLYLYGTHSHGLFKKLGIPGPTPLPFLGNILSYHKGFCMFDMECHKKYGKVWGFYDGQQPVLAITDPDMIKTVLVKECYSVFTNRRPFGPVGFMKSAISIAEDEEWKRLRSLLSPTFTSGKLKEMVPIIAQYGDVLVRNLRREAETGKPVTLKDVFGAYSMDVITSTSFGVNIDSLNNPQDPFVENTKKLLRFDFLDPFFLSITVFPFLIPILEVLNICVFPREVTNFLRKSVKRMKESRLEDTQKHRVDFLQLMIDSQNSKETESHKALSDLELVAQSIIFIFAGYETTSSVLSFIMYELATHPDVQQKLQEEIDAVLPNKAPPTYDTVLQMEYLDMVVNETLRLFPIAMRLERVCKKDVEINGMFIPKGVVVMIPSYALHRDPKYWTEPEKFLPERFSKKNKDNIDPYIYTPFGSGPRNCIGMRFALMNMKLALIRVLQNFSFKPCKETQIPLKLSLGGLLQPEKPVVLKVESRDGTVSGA

[8] = molecular target: Glucose-6-phosphate 1-dehydrogenase (Homo sapiens, UniProt P11413); test: human G6PD enzyme inhibitors, dose response, selectivity assay for P. falciparum G6PD inhibitor project, biochemical, fluorescence (AID 504792); format: functional
Glucose-6-phosphate 1-dehydrogenase, sequence (P11413 whole entry): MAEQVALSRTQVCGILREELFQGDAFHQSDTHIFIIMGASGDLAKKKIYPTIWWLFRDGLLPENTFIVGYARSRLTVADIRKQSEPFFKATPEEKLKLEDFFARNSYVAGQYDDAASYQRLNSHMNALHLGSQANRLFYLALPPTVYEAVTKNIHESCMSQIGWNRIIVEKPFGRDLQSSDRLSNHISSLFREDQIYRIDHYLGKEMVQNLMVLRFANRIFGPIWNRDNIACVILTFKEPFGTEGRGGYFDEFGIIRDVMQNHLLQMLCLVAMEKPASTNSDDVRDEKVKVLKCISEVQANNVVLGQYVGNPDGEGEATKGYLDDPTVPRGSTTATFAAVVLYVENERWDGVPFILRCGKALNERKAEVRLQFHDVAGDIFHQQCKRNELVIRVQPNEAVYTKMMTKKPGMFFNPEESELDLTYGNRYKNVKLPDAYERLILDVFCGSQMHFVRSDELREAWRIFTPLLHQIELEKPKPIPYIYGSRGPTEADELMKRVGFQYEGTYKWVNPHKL

Genome polyprotein = Genome polyprotein (dengue virus type 2, UniProt P29990); test: Dengue-2 NS5 methyltransferase inhibitors, primary screen, biochemical, confirmation dose response (AID 588689); format: functional
Genome polyprotein, sequence (P29990 2492-3391 limits assumed): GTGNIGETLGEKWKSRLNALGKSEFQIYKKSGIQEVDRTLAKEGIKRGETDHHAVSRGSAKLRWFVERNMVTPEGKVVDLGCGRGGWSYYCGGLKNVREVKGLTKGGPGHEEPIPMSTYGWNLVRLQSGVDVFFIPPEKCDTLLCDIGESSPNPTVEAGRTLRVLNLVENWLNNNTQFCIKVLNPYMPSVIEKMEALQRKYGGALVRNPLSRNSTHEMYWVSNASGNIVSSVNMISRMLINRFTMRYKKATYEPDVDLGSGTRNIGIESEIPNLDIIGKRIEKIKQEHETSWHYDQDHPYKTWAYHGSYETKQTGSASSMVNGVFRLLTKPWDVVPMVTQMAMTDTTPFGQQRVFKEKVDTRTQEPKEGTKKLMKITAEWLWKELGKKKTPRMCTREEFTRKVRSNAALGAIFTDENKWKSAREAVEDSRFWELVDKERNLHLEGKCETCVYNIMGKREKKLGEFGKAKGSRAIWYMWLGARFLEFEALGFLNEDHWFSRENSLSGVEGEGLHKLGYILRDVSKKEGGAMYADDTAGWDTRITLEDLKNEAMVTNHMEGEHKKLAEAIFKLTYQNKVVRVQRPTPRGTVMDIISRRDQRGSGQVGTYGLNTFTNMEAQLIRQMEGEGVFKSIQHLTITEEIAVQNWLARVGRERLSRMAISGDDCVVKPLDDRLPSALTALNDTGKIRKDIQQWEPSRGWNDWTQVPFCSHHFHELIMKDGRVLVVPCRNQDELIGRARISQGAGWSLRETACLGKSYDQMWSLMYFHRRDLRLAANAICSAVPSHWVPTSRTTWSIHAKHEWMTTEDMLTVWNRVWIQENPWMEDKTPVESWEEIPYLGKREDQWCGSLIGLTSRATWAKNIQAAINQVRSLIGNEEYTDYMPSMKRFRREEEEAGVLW

[9] = THP-1 cell cytotoxicity, dose response, cytotoxicity control for non-replicating M. tuberculosis project (AID 489025); format: functional
[10] = molecular target: T3, Microphthalmia-associated transcription factor (Homo sapiens, UniProt O75030); test: TRPM1 promoter luciferase signal decrease, dose response, MITF inhibitor project, cell-based, SK-MEL-5, cherry-picked, set 3 (AID 493073); format: functional
T3 sequence (O75030 whole entry): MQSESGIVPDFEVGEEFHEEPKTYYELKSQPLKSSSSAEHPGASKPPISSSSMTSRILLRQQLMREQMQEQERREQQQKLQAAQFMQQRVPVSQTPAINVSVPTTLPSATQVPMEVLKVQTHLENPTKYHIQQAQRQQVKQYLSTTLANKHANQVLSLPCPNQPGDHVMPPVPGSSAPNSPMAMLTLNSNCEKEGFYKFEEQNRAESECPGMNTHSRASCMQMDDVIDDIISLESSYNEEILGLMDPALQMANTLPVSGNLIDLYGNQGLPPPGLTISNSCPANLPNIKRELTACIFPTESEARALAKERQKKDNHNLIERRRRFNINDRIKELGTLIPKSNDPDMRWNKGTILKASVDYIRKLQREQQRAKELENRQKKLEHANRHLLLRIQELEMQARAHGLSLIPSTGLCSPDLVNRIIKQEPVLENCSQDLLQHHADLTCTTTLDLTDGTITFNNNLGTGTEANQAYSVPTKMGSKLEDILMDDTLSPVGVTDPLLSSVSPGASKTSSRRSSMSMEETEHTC

cells = format: functional

UDP-galactopyranose mutase, sequence (P9WIQ1 whole entry): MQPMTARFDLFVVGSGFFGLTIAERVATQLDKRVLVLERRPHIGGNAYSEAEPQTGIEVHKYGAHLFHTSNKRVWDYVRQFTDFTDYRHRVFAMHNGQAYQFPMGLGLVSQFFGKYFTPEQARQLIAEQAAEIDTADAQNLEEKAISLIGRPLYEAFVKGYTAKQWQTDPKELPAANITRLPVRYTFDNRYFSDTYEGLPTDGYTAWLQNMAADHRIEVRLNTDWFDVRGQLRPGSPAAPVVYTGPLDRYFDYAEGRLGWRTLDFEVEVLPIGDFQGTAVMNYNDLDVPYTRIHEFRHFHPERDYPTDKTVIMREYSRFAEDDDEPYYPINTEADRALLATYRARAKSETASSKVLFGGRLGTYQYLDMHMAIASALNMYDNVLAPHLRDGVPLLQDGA

For `CCN1C(=O)NC(=O)/C(=C\c2cn(CC(=O)N3CCCC3)c3ccccc23)C1=O`, the AC50 [1] was 107 µM (active).
In the case of `O=Nc1c2[nH]c3ccccc3[n+]([O-])c-2c2ccccc12`, the CC50 [2] is reported as 34.2 µM (active), the EC50 [3] is reported as 15.7 µM (active) and the EC50 [4] is reported as 8.47 µM (active). For the same compound, the EC50 (H4) was 12.5 µM (inconclusive), the CC50 [5] was > 40 µM (active) and the IC50 (Exodeoxyribonuclease V) was > 119 µM (inactive). The IC50 [6] was > 119 µM (inactive).
In the case of `Clc1ccccc1-c1nnc(-c2cccs2)o1`, the IC50 (HEK293) is reported as > 67.5 µM (inactive) and the IC50 [7] is reported as > 67.5 µM (inactive).
With `Cc1cc(C)c(C)c(S(=O)(=O)N2CCN(C)CC2)c1C` the IC50 (HEK293) was > 67.5 µM (inactive) and the IC50 [7] was > 67.5 µM (inactive).
With `O=C(OCCN1C(=O)c2cccc3c(N4CCOCC4)ccc(c23)C1=O)c1cccc(Cl)c1` the AC50 [1] was 19.2 µM (active).
For `N#Cc1sc2nc(-c3cccs3)cc(-c3ccc(Cl)cc3)c2c1N`, the AC50 (Cytochrome P450 2C19) was 3.98 µM (inconclusive), the IC50 (CHO) was > 49.7 µM (inactive) and the IC50 (Beta Lactamase) was 4.74 µM (active). For the same compound, the AC50 (Cytochrome P450 3A4) was 1.41 µM (inconclusive).
For `CCS(=O)(=O)N1CCN(c2ccc([N+](=O)[O-])c(NC(C)c3ccccc3)c2)CC1` (configuration not stated), the IC50 [8] was > 80 µM (inactive).
With `Cc1cc(O)c(C(C)C)cc1N=Cc1ccc(N(C)C)cc1` the IC50 [8] was 23.9 µM (inactive) and the IC50 (Genome polyprotein) was > 100 µM (active).
With `COc1ccccc1NC(=O)CCC(=O)N/N=C(/C)c1ccc(C)cc1` the IC50 (HEK293) was 46.9 µM (inactive) and the IC50 [7] was > 67.5 µM (inactive).
In the case of `Cc1cc(C(=O)N/N=C/c2ccc([N+](=O)[O-])o2)c(C)o1`, the IC50 (Exodeoxyribonuclease V) is reported as > 119 µM (inactive), the CC50 [9] is reported as 38.9 µM (active) and the IC50 [6] is reported as > 119 µM (inactive). The AC50 [10] was 4.79 µM (active) and the IC50 (cells) was 1.89 µM (active).
